Assay results reported in article PMC9181987, “Disclosing the Potential of Fluorinated Ionic Liquids as Interferon-Alpha 2b Delivery Systems” (Nanomaterials, 2022).
Where “and” joins values, the source holds several entries; their conditions need not be identical. Equal values may be shown once.

Test: Conductivity titration: critical aggregation concentrations, ionization degree, Gibbs free energy of aggregation
Type: physicochemical
Design: First CAC (wFIL) / Third CAC (wFIL): unit not given here
Settings: 25°C
Method: For this purpose, a CDM210 conductometer (Radiometer Analytical, Lyon, France) and a CDC749 electrode (Radiometer Analytical, Lyon, France) were utilized. The electrode was calibrated at 25 °C using two standard solutions of 0.1 and 0.01 D KCl (Radiometer Analytical). The standard solutions and samples were measured inside of a glass cell in a thermostated bath at 25 °C with constant magnetic stirring. […] Each sample was then placed on the cell, stirred, and had its ionic conductivity measured. […] This experimental procedure was carried out until the ionic conductivity reached a plateau. […] The ionic conductivity was measured at least three times before adding more solution and the uncertainty of each measurement was estimated to be less than 1%.
A thorough analysis of the conductivity profile was advanced by applying the Phillips definition, which studies the change of the slopes of the conductivity curve along with the variation in FIL concentration.
From the parameter α, the degree of counterion binding, β, can be calculated. This parameter is associated with the charge density at the surface, the size, and the hydrophobic nature of the aggregate. It is given by the following equation:β = 1 − α(1)
Another parameter was considered in this study related to the spontaneity of a surfactant to aggregate, given by the standard Gibbs free energy of aggregation, ΔGagg0 . This parameter is provided by the pseudophase model of micellization, using the equation:(2) ΔGagg0=RT(1+β)lnxCAC where R is the universal gas constant, T is the absolute temperature and xCAC corresponds to the value of CAC in molar fraction. As long as this parameter is more negative, this means that the process of aggregation in the specific CACs is more spontaneous.

[1] = 10 μg/mL IFN-α 2b + 5 mM NaH2PO4 (pH=7.4)

## CCn1cc[n+](C)c1.O=S(=O)([O-])C(F)(F)C(F)(F)C(F)(F)C(F)(F)F [[C2C1Im][C4F9SO3], 1-Ethyl-3-methylimidazolium perfluorobutanesulfonate]
[1]
  First CAC: 15.19 mmol/kg
  First CAC (wFIL): 0.0062
  Gibbs free energy of aggregation ΔG0agg, First CAC: -23.0 kJ/mol
  Gibbs free energy of aggregation ΔG0agg, Second CAC: -20.3 kJ/mol
  Gibbs free energy of aggregation ΔG0agg, Third CAC: -23.8 kJ/mol
  Second CAC: 43.57 mmol/kg
  Second CAC (wFIL): 0.0179
  Third CAC: 83.44 mmol/kg
  Third CAC (wFIL): 0.0342
  ionization degree α, First CAC: 0.87
  ionization degree α, Second CAC: 0.85
  ionization degree α, Third CAC: 0.52
5 mM NaH2PO4 (pH=7.4)
  First CAC: 13.75 mmol/kg
  First CAC (wFIL): 0.0056
  Gibbs free energy of aggregation ΔG0agg, First CAC: -23.7 kJ/mol
  Gibbs free energy of aggregation ΔG0agg, Second CAC: -20.2 kJ/mol
  Gibbs free energy of aggregation ΔG0agg, Third CAC: -26.6 kJ/mol
  Second CAC: 46.13 mmol/kg
  Second CAC (wFIL): 0.0189
  Third CAC: 83.13 mmol/kg and 80.35 mmol/kg
  Third CAC (wFIL): 0.0341
  ionization degree α, First CAC: 0.85
  ionization degree α, Second CAC: 0.85
  ionization degree α, Third CAC: 0.34
25 mM KH2PO4 (pH=6.8)
  First CAC: 1.99 mmol/kg
  First CAC (wFIL): 0.0008
  Gibbs free energy of aggregation ΔG0agg, First CAC: -44.6 kJ/mol
  Gibbs free energy of aggregation ΔG0agg, Second CAC: -24.1 kJ/mol
  Gibbs free energy of aggregation ΔG0agg, Third CAC: -29.9 kJ/mol
  Second CAC: 38.64 mmol/kg
  Second CAC (wFIL): 0.0158
  Third CAC: 71.45 mmol/kg
  Third CAC (wFIL): 0.0293
  ionization degree α, First CAC: 0.24
  ionization degree α, Second CAC: 0.66
  ionization degree α, Third CAC: 0.18
100 mM HCl (pH=1.2)
  First CAC: 4.65 mmol/kg
  First CAC (wFIL): 0.0019
  Gibbs free energy of aggregation ΔG0agg, First CAC: -46.4 kJ/mol
  ionization degree α, First CAC: 0.003
150 mM NaCl (pH=7.3)
  First CAC: 3.51 mmol/kg
  First CAC (wFIL): 0.0014
  Gibbs free energy of aggregation ΔG0agg, First CAC: -44.6 kJ/mol
  Gibbs free energy of aggregation ΔG0agg, Second CAC: -22.9 kJ/mol
  Gibbs free energy of aggregation ΔG0agg, Third CAC: -29.3 kJ/mol
  Second CAC: 33.69 mmol/kg
  Second CAC (wFIL): 0.0138
  Third CAC: 83.46 mmol/kg
  Third CAC (wFIL): 0.0342
  ionization degree α, First CAC: 0.14
  ionization degree α, Second CAC: 0.75
  ionization degree α, Third CAC: 0.17
150 mM NaH2PO4 (pH=7.4)
  First CAC: 14.57 mmol/kg
  First CAC (wFIL): 0.0060
  Gibbs free energy of aggregation ΔG0agg, First CAC: -23.4 kJ/mol
  Gibbs free energy of aggregation ΔG0agg, Second CAC: -21.6 kJ/mol
  Gibbs free energy of aggregation ΔG0agg, Third CAC: -29.5 kJ/mol
  Second CAC: 32.93 mmol/kg
  Second CAC (wFIL): 0.0135
  Third CAC: 68.76 mmol/kg
  Third CAC (wFIL): 0.0282
  ionization degree α, First CAC: 0.85
  ionization degree α, Second CAC: 0.82
  ionization degree α, Third CAC: 0.21
